The results in this text go back to the NIST ThermoML archive (doi:10.1021/je300382a).

Numbers after ± are expanded uncertainties.

Series [1] in a line: refractive index (Na D-line) (dimensionless). The note with it: 101.33 kPa, Liquid, Standard Abbe refractometry.
The conditions of series [2]: Ring tensiometer.
Series [3] in a line: refractive index (Na D-line) (dimensionless); xn = mol fraction of the nth substance listed. The following applies: 101 kPa, Liquid, Standard Abbe refractometry, x2 = 0.
Series [4] is described as follows: xn = mol fraction of the nth substance listed. The note with it: Ring tensiometer, x2 = 0.

As to `CC(N)CN` (stereo not given) [1,2-propanediamine], the refractive index in series [1] (283.15 K) amounted to 1.451 ± 0.0004; in series [1] (293.15 K), 1.4458 ± 0.0004; in series [1] (303.15 K), 1.4409 ± 0.0004; in series [1] (313.15 K), 1.4362 ± 0.0004; in series [1] (323.15 K) it was 1.4314 ± 0.0004. Moreover, the surface tension liquid-gas in series [2] (283.15 K) is recorded as 35 ± 0.5 mN/m; in series [2] (293.15 K) it was 33.8 ± 0.5 mN/m; in series [2] (303.15 K), 32.7 ± 0.5 mN/m; in series [2] (313.15 K), 31.4 ± 0.5 mN/m; in series [2] (323.15 K), 30.3 ± 0.5 mN/m.

As to `NCc1ccccc1` [benzylamine], the refractive index in series [1] (283.15 K) amounted to 1.5516 ± 0.0004; in series [1] (293.15 K), 1.5445 ± 0.0004; in series [1] (303.15 K), 1.5393 ± 0.0004; in series [1] (313.15 K) it was 1.5328 ± 0.0004; in series [1] (323.15 K) it was 1.5279 ± 0.0004. Moreover, the surface tension liquid-gas in series [2] (283.15 K) is given as 37.9 ± 0.6 mN/m; in series [2] (293.15 K), 37.1 ± 0.5 mN/m; in series [2] (303.15 K) it was 36.3 ± 0.5 mN/m; in series [2] (313.15 K), 35.6 ± 0.5 mN/m; in series [2] (323.15 K) it was 35 ± 1 mN/m.

As for `O` [water] + CC(N)CN, the refractive index in series [3] (283.15 K) came out at 1.3343 ± 0.0003; in series [3] (293.15 K), 1.333 ± 0.0003; in series [3] (303.15 K), 1.3319 ± 0.0003; in series [3] (313.15 K), 1.3306 ± 0.0003; in series [3] (323.15 K) it was 1.329 ± 0.0003. The surface tension liquid-gas in series [4] (283.15 K) stood at 74.2 ± 0.9 mN/m; in series [4] (293.15 K), 72.6 ± 0.9 mN/m; in series [4] (303.15 K), 71.3 ± 0.9 mN/m; in series [4] (313.15 K), 69.2 ± 0.9 mN/m; in series [4] (323.15 K), 67.7 ± 0.9 mN/m.

Regarding `O` [water] + NCc1ccccc1, the refractive index was determined as 1.3343 ± 0.0003 in series [3] (283.15 K); 1.333 ± 0.0003 in series [3] (293.15 K); 1.3319 ± 0.0003 in series [3] (303.15 K); 1.3306 ± 0.0003 in series [3] (313.15 K); 1.329 ± 0.0003 in series [3] (323.15 K). Moreover, the surface tension liquid-gas stood at 74.2 ± 0.9 mN/m in series [4] (283.15 K); 72.6 ± 0.9 mN/m in series [4] (293.15 K); 71.1 ± 0.9 mN/m in series [4] (303.15 K); 69.2 ± 0.9 mN/m in series [4] (313.15 K); 67.7 ± 0.9 mN/m in series [4] (323.15 K).
